According to ChEMBL document CHEMBL1155505, “Penicinoline, a new pyrrolyl 4-quinolinone alkaloid with an unprecedented ring system from an endophytic fungus Penicillium sp” (Bioorg Med Chem Lett, 2010):
≈ marks a conversion by molar mass, not a printed value.

What was measured:
[1] = test system: Plutella xylostella; assay: Insecticidal activity against Plutella xylostella; type: functional
[2] = Cytotoxicity against human KBv200 cells; type: functional, cell-based
[3] = test system: Heliothis virescens; assay: Insecticidal activity against Heliothis virescens; type: functional
[4] = test system: Aphis gossypii; assay: Insecticidal activity against Aphis gossypii; type: functional
[5] = test system: HepG2; assay: Cytotoxicity against human HepG2 cells; type: functional, cell-based
[6] = test system: HeLa; assay: Cytotoxicity against human HeLa cells; type: functional, cell-based
[7] = test system: Uromyces viciae-fabae; assay: […] activity against Uromyces fabae; type: functional
[8] = Cytotoxicity against human 95-D cells; type: functional, cell-based
[9] = test system: KB; assay: Cytotoxicity against human KB cells; type: functional, cell-based
[10] = test system: HEp-2; assay: Cytotoxicity against human Hep2 cells; type: functional, cell-based
[11] = test system: Zymoseptoria tritici; assay: […] activity against Septoria tritici; type: functional

| SMILES | min. effective conc. [1] [ppm] | IC50 [2] [mg/L] | min. effective conc. [3] [ppm] | min. effective conc. [4] [ppm] | IC50 [5] [mg/L] | IC50 [6] [mg/L] | min. effective conc. [7] [ppm] | IC50 [8] [mg/L] | IC50 [9] [mg/L] | IC50 [10] [mg/L] | min. effective conc. [11] [ppm] |
| --- | --- | --- | --- | --- | --- | --- | --- | --- | --- | --- | --- |
| O=C(O)c1c(-c2ccc[nH]2)[nH]c2ccccc2c1=O [PENICINOLINE] | > 1000 | > 100 | > 1000 | 1000 | 6.5 (≈ 25.6 µM) | > 100 | > 1000 | 0.57 (≈ 2.24 µM) | > 100 | > 100 | > 1000 |
| Cn1c2c(c(=O)c3ccccc31)C(=O)n1cccc1-2 [PENICINOTAM] | 500 |  | > 1000 | 1000 |  |  | > 1000 |  |  |  | > 1000 |
